Results from paper PMC7663272, “Discovery of Tricyclic Pyranochromenone as Novel Bruton’s Tyrosine Kinase Inhibitors with In Vivo Antirheumatic Activity” (International Journal of Molecular Sciences, 2020).

Tests used:
Format in all cases: biochemical
ERBB4 = target: T1, ERBB4 (Homo sapiens, UniProt Q15303); assay: HotSpot kinase enzymatic assay, ERBB4
T1 construct: purchased Reaction Biology Corporation
Experimental: (§1) Therefore, efforts have focused on developing new compounds with good selectivity profiles. […] Compound 8 was selective against BTK. The biochemical activities of compound 8 differed among TEC family kinases. […] The inhibitory potential of compound 8 differed between members of the EGFR family. […] The inhibitory activity of compound 8 against JAK3 was also low.
(§2) Kinase enzymatic assays for BTK, BMX, TXK, TEC, ITK, EGFR, ERBB2, ERBB4, and JAK3 were performed at Reaction Biology Corporation (www.reactionbiology.com, Malvern, PA, USA) using the HotSpot assay platform. Briefly, specific kinase/substrate pairs and the required cofactors were prepared in a reaction buffer comprising 20 mM HEPES (pH 7.5), 10 mM MgCl2, 1 mM EGTA, 0.02% Brij35, 0.02 mg/mL BSA, 0.1 mM Na3VO4, 2 mM DTT, and 1% DMSO. The compounds were added to the reaction mixture and allowed to incubate. Approximately 20 min later, a mixture of ATP (Sigma-Aldrich, St. Louis, MO, USA) and ^33P ATP (PerkinElmer, Waltham, MA, USA) was added to the reaction mixture at a final concentration of 10 μM. The reactions were performed at room temperature for 120 min; subsequently, the reactions were spotted onto P81 ion exchange filter papers (Whatman Inc., Maidstone, UK). Any unbound phosphate was removed by thoroughly washing the filter papers with 0.75% phosphoric acid. […]

TXK = target: T2, TXK (Homo sapiens, UniProt P42681); assay: HotSpot kinase enzymatic assay, TXK
T2 construct: purchased Reaction Biology Corporation
T2 sequence (P42681 1-527): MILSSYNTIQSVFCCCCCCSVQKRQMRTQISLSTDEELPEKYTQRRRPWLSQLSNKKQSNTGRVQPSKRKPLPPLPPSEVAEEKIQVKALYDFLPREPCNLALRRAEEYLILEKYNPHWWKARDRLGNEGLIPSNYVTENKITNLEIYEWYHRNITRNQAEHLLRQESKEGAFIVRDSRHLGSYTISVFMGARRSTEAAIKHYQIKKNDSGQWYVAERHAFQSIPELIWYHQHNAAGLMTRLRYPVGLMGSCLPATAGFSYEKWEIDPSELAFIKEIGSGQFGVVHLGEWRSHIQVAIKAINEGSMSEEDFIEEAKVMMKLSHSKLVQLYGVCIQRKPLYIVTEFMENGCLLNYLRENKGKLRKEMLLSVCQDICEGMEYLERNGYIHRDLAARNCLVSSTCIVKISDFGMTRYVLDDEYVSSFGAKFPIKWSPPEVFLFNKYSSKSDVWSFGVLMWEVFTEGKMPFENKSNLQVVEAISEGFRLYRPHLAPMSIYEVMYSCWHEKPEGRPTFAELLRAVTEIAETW
Experimental: as §1, §2

EGFR = target: T3, EGFR (Homo sapiens, UniProt P00533); assay: HotSpot kinase enzymatic assay, EGFR
T3 construct: purchased Reaction Biology Corporation
T3 sequence (P00533 25-1210): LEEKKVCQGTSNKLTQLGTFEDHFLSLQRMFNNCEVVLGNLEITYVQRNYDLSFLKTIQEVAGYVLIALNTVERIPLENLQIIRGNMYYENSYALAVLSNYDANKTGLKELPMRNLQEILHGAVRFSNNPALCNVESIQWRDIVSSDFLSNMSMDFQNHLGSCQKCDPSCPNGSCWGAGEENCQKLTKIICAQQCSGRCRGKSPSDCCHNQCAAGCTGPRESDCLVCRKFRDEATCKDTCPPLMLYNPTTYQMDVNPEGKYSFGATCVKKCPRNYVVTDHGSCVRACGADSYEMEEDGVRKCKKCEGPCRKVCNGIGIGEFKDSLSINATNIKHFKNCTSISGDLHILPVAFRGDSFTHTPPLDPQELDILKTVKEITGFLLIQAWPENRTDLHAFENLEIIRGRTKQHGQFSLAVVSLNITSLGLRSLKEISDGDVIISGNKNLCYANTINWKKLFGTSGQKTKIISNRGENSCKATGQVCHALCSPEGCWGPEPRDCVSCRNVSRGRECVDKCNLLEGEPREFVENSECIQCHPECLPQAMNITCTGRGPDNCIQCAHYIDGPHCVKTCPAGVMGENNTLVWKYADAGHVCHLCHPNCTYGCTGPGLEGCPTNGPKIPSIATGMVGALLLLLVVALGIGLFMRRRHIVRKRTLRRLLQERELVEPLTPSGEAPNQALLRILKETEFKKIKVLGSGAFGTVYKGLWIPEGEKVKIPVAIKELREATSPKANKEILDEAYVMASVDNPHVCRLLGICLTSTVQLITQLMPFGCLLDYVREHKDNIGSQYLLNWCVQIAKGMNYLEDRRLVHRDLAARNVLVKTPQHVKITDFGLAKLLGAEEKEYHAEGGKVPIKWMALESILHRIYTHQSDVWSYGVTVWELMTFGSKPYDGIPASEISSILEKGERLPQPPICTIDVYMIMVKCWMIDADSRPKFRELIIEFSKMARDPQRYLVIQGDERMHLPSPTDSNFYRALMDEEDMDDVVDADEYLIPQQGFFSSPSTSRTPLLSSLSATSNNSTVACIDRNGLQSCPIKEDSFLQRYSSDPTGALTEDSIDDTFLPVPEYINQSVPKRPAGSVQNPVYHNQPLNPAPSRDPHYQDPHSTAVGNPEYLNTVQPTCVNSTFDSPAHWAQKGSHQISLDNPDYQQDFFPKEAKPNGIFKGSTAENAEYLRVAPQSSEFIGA
Experimental: as §1, §2

BTK-C481S = target: T4, BTK-C481S (Homo sapiens, UniProt Q06187, C481S); assay: HotSpot kinase enzymatic assay, mutant BTK; settings: vs negative control (DMSO), mean of two separate experiments
T4 construct: purchased Reaction Biology Corporation
T4 sequence (Q06187 whole entry C481S): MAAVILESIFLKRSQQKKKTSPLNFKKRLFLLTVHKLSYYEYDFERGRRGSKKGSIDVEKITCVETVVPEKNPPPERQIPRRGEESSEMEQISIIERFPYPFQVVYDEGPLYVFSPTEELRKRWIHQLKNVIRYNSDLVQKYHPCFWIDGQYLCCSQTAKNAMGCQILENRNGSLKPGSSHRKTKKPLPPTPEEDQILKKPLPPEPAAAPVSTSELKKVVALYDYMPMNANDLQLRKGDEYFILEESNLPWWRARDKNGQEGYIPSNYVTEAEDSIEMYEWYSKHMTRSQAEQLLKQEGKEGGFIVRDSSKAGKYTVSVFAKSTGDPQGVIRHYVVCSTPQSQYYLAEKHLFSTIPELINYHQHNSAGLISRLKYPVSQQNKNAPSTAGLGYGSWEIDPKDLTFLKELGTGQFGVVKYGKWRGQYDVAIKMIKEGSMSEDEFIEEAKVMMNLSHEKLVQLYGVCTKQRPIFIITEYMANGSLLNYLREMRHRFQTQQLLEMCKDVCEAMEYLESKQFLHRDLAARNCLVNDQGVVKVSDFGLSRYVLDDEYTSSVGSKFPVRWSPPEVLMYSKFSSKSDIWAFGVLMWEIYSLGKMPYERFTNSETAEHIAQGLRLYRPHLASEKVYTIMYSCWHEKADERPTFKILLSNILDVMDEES
Source text: To confirm the role of the electrophilic warhead groups, the acryloyl group of compound 8 was replaced with methylacryloyl (11) and propionyl (12) groups, which are less electrophilic or lack an electrophilic feature. […] The significant difference in the inhibitory activity of compounds 8 and 12 could explain the critical role of the acryloyl moiety in potentiating the BTK inhibitory activity of compound 8. […] It was also confirmed by comparison of the inhibitory activity of the representative compounds (8–10) with electrophilic warheads against wild-type BTK (BTK-wt) and mutant BTK (BTK-C481S).
Kinase enzymatic assays for BTK, BMX, TXK, TEC, ITK, EGFR, ERBB2, ERBB4, and JAK3 were performed at Reaction Biology Corporation (www.reactionbiology.com, Malvern, PA, USA) using the HotSpot assay platform. Briefly, specific kinase/substrate pairs and the required cofactors were prepared in a reaction buffer comprising 20 mM HEPES (pH 7.5), 10 mM MgCl2, 1 mM EGTA, 0.02% Brij35, 0.02 mg/mL BSA, 0.1 mM Na3VO4, 2 mM DTT, and 1% DMSO. The compounds were added to the reaction mixture and allowed to incubate. Approximately 20 min later, a mixture of ATP (Sigma-Aldrich, St. Louis, MO, USA) and ^33P ATP (PerkinElmer, Waltham, MA, USA) was added to the reaction mixture at a final concentration of 10 μM. The reactions were performed at room temperature for 120 min; subsequently, the reactions were spotted onto P81 ion exchange filter papers (Whatman Inc., Maidstone, UK). Any unbound phosphate was removed by thoroughly washing the filter papers with 0.75% phosphoric acid. […] GraphPad Prism software was used to obtain the IC50 values and perform curve fitting.

TEC = target: T5, TEC (Homo sapiens, UniProt P42680); assay: HotSpot kinase enzymatic assay, TEC
T5 construct: purchased Reaction Biology Corporation
T5 sequence (P42680 1-631): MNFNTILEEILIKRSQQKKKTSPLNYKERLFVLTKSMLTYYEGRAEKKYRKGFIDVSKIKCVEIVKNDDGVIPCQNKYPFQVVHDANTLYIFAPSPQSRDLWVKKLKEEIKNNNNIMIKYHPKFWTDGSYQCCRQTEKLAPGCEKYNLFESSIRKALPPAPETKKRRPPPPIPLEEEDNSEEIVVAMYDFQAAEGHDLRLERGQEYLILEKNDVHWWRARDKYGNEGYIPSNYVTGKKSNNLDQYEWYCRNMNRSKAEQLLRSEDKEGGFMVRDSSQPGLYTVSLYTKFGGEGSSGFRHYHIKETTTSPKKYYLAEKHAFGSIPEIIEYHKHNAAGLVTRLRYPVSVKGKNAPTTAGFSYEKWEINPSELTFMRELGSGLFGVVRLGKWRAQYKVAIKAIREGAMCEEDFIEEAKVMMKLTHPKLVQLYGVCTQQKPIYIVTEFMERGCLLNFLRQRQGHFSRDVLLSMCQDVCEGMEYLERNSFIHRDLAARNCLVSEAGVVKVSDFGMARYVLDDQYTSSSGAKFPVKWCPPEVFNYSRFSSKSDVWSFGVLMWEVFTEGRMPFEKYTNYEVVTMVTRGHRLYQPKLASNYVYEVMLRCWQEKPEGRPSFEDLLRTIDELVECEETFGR
Experimental: as §1, §2

T1 sequence (Q15303 26-1308): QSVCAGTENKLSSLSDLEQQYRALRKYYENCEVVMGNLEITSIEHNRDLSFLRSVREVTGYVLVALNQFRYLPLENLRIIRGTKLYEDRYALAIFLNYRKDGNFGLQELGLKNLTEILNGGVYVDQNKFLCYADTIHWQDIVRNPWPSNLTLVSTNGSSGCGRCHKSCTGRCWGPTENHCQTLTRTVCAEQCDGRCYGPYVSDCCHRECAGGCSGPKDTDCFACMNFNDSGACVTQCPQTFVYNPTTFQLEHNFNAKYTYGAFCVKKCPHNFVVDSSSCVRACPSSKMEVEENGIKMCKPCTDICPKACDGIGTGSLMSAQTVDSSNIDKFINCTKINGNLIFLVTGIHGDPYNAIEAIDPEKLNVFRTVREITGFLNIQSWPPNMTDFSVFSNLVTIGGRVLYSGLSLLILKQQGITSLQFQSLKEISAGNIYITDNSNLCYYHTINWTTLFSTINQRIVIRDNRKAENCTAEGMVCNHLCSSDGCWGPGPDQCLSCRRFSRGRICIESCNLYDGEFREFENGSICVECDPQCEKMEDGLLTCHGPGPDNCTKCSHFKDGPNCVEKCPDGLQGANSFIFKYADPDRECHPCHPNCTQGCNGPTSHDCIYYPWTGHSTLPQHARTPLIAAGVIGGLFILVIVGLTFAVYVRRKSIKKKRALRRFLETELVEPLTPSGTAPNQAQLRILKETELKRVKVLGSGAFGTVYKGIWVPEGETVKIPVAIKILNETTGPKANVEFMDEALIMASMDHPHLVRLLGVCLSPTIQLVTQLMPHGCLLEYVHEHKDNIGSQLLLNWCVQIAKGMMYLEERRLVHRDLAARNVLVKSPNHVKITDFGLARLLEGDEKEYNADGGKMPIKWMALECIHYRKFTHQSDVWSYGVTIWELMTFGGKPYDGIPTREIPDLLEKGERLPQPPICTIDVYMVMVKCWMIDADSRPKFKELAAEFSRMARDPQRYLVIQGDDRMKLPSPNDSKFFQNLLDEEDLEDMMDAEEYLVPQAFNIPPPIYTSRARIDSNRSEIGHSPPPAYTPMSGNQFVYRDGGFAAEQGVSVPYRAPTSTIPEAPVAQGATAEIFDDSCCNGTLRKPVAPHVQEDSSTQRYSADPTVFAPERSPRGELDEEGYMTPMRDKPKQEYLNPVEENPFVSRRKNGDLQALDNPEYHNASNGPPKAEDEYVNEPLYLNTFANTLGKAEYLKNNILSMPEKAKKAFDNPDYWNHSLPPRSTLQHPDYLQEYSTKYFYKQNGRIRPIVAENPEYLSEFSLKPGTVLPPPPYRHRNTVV

C=CC(=O)O[C@H]1Cc2cc3ccc(=O)oc3cc2OC1(C)C [Compound 8, (7S)-(+)-Acrylic acid, 8,8-dimethyl-2-oxo-6,7-dihydro-2H,8H-pyrano [3,2-g]chromen-7-yl ester]
inhibitory activity against ERBB4 (in words) (ERBB4): inactive
inhibitory activity against TXK (in words) (TXK): strong inhibitory activity
inhibition at 10 µM (TXK; 10 µM, mean of two experiments): 88.5%
inhibitory activity against EGFR (in words) (EGFR): weak inhibitory activity
inhibition at 10 µM (EGFR; 10 µM, mean of two experiments): 32.9%
inhibition at 10 µM (BTK-C481S): 9.7%
inhibitory activity against TEC (in words) (TEC): moderate activity
inhibition at 10 µM (TEC; 10 µM, mean of two experiments): 54.5%
